Read-outs that look alike come from different tables or passages of the source. Blank lines part the entries; values can stand above or below the compound they belong to.
Experiments:
[1] = molecular target: CK1ε (Homo sapiens (Human), UniProt P49674); test: CK1ε kinase assay (Caliper LABCHIP electrophoretic separation of fluoresceinated peptide substrate and product); type: biochemical; details: read-out: CK1ε (IC50)
Experimental: (§1) CK1ε and CK1δ Kinase Assays
(§2) The kinase assay was performed in V-bottom 384-well plates. […] The reaction was incubated at room temperature for 22 hours and terminated by adding 45 μl of 35 mM EDTA to each sample. The reaction mixture was analyzed on the Caliper LABCHIP®3000 (Caliper, Hopkinton, Mass.) by electrophoretic separation of the unphosphorylated substrate and phosphorylated product. […] Compounds were dissolved at 10 mM in dimethylsulfoxide (DMSO) and evaluated at eleven concentrations. IC50 values were derived by non-linear regression analysis.

[2] = molecular target: CK1δ (Homo sapiens (Human), UniProt P48730); test: CK1δ kinase assay (Caliper LABCHIP electrophoretic separation of fluoresceinated peptide substrate and product); type: biochemical; details: 200 pM CK1δ, 50 μM ATP, 1.5 μM peptide substrate, 22 hours at room temperature; read-out: CK1δ (IC50)
CK1δ, sequence (P48730 whole entry): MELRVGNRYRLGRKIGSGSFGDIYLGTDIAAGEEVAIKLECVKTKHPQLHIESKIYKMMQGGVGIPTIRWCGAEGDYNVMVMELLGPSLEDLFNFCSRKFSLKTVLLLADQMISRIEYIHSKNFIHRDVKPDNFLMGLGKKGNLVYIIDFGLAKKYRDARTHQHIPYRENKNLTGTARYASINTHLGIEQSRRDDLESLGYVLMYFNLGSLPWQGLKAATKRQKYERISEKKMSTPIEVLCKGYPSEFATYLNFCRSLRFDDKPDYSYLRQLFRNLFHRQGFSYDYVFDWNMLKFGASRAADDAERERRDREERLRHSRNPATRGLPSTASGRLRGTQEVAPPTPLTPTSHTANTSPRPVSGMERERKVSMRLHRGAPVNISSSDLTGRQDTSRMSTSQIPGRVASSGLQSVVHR
Experimental: as §1, §2

[3] = 200 pM CK1ε, 50 μM ATP, 1.5 μM peptide substrate, 22 hours at room temperature

CK1ε, sequence (P49674 whole entry): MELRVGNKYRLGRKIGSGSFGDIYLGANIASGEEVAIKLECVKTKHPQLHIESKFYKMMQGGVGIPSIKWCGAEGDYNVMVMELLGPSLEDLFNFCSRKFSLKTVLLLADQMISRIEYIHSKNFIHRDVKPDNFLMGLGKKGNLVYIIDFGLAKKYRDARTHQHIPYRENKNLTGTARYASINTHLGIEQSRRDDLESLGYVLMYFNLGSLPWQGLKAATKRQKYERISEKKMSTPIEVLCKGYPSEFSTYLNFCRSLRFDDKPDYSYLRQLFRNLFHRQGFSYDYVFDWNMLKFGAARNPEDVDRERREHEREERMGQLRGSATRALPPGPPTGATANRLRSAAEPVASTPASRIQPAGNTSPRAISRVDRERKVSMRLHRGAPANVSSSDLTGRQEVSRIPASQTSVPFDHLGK

Structure (SMILES): Cc1cc(F)cc(-c2nn3c(c2C(N)=O)CN(C(=O)Nc2ccc(C#N)c(C(F)(F)F)c2)CC3)c1 [Compound 229, N^5-(4-Cyano-3-(trifluoromethyl)phenyl)-2-(3-fluoro-5-methylphenyl)-6,7-dihydropyrazolo[1,5-a] pyrazine-3,5(4H)-dicarboxamide]
IC50 [1]: 0.01 to 10 nM
IC50 [2]: 0.01 to 10 nM

Structure (SMILES): N#Cc1ccc(NC(=O)N2CCn3nc(-c4cc(F)cc(Cl)c4)c(C(N)=O)c3C2)cc1C(F)(F)F [Compound 218, 2-(3-Chloro-5-fluorophenyl)-N^5-(4-cyano-3-(trifluoromethyl)phenyl)-6,7-dihydropyrazolo[1,5-a] pyrazine-3,5(4H)-dicarboxamide]
IC50 [1, 3]: 0.01 to 10 nM
IC50 [2]: 10 to 100 nM

Structure (SMILES): NC(=O)c1c(-c2cccc(F)c2)nn2c1CN(C(=O)Nc1ccc(F)cc1)CC2 [Compound 16, 2-(3-Fluorophenyl)-N^5-(4-fluorophenyl)-6,7-dihydropyrazolo[1,5-a]pyrazine-3,5(4H)-dicarboxamide]
IC50 [1, 3]: 0.01 to 10 nM
IC50 [2]: 0.01 to 10 nM

Structure (SMILES): COc1cc(F)cc(-c2nn3c(c2C(N)=O)CN(C(=O)NC(C)(C)C)CC3)c1 [Compound 137, N^5-(tert-Butyl)-2-(3-fiuoro-5-methoxyphenyl)-6,7-dihydropyrazolo[1,5-a]pyrazine-3,5(4H)-dicarboxamide]
IC50 [2]: 0.01 to 10 nM

Structure (SMILES): NC(=O)c1c(-c2ccc(F)cc2)nn2c1CN(C(=O)NC1CCCCC1)CC2 [Compound 3, N^5-Cyclohexyl-2-(4-fluorophenyl)-6,7-dihydropyrazolo[1,5-a]pyrazine-3,5(4H)-dicarboxamide]
IC50 [2]: 0.01 to 10 nM

Structure (SMILES): CC(C)(NC(=O)N1CCn2nc(-c3cccc(F)c3)c(C(N)=O)c2C1)c1ccccc1 [Compound 25, 2-(3-Fluorophenyl)-N^5-(2-phenylpropan-2-yl)-6,7-dihydropyrazolo[1,5-a]pyrazine-3,5(4H)-dicarboxamide]
IC50 [2]: 0.01 to 10 nM

Structure (SMILES): Cc1ccc(NC(=O)N2CCn3nc(-c4cccc(F)c4)c(C(N)=O)c3C2)cn1 [Compound 86, 2-(3-Fluorophenyl)-N^5-(6-methylpyridin-3-yl)-6,7-dihydropyrazolo[1,5-a]pyrazine-3,5(4H)-dicarboxamide]
IC50 [2]: 0.01 to 10 nM

Structure (SMILES): NC(=O)c1c(-c2cccc(F)c2)nn2c1CN(C(=O)Nc1ccnc(Cl)c1)CC2 [Compound 90, N^5-(2-Chloropyridin-4-yl)-2-(3-fluorophenyl)-6,7-dihydropyrazolo[1,5-a]pyrazine-3,5(4H)-dicarboxamide]
IC50 [2]: 0.01 to 10 nM

Structure (SMILES): CC(C)(NC(=O)N1CCn2nc(-c3cccc(F)c3)c(C(N)=O)c2C1)c1ccc(F)cc1 [Compound 17, 2-(3-Fluorophenyl)-N^5-(2-(4-fluorophenyl)propan-2-yl)-6,7-dihydropyrazolo[1,5-a]pyrazine-3,5(4H)-dicarboxamide]
IC50 [2]: 0.01 to 10 nM

Structure (SMILES): NC(=O)c1c(-c2cccc(F)c2)nn2c1CN(C(=O)Nc1cccnc1)CC2 [Compound 68, 2-(3-Fluorophenyl)-N^5-(pyridin-3-yl)-6,7-dihydropyrazolo[1,5-a]pyrazine-3,5(4H)-dicarboxamide]
IC50 [2]: 0.01 to 10 nM

Structure (SMILES): N#Cc1ccc(NC(=O)N2Cc3c(C(N)=O)c(-c4ccc(F)c(Cl)c4)nn3[C@H](C(F)F)C2)cc1Cl [Compound A18, (S)—N^5-(3-Chloro-4-cyanophenyl)-2-(3-chloro-4-fluorophenyl)-7-(difluoromethyl)-6,7-dihydropyrazolo[1,5-a]pyrazine-3,5(4H)-dicarboxamide]
IC50 [2]: 0.01 to 10 nM

Structure (SMILES): NC(=O)c1c(-c2cccc(F)c2)nn2c1CN(C(=O)NC1CCN(S(=O)(=O)C3CC3)CC1)CC2 [Compound 102, N^5-(1-(Cyclopropylsulfonyl)piperidin-4-yl)-2-(3-fluorophenyl)-6,7-dihydropyrazolo[1,5-a]pyrazine-3,5(4H)-dicarboxamide]
IC50 [2]: 0.01 to 10 nM

Structure (SMILES): NC(=O)c1c(-c2cccc(F)c2)nn2c1CN(C(=O)Nc1ccc(F)nc1)CC2 [Compound 87, 2-(3-Fluorophenyl)-N^5-(6-fluoropyridin-3-yl)-6,7-dihydropyrazolo[1,5-a]pyrazine-3,5(4H)-dicarboxamide]
IC50 [2]: 0.01 to 10 nM

Structure (SMILES): NC(=O)c1c(-c2cccc(F)c2)nn2c1CN(C(=O)Nc1ccc(OC(F)F)cc1)CC2 [Compound 89, N^5-(4-(Difluoromethoxy)phenyl)-2-(3-fluorophenyl)-6,7-dihydropyrazolo[1,5-a]pyrazine-3,5(4H)-dicarboxamide]
IC50 [2]: 0.01 to 10 nM

Structure (SMILES): CC(=O)N1CCC(NC(=O)N2CCn3nc(-c4cccc(F)c4)c(C(N)=O)c3C2)CC1 [Compound 97]
IC50 [2]: 0.01 to 10 nM

Structure (SMILES): COc1ccc(NC(=O)N2CCn3nc(-c4cccc(F)c4)c(C(N)=O)c3C2)cc1OC [Compound 66, N^5-(3,4-Dimethoxyphenyl)-2-(3-fluorophenyl)-6,7-dihydropyrazolo[1,5-a]pyrazine-3,5(4H)-dicarboxamide]
IC50 [2]: 0.01 to 10 nM

Further lines, results first:

IC50 [1, 3]: 0.01 to 10 nM
IC50 [2]: 0.01 to 10 nM
Structure (SMILES): Cc1cc(C)cc(-c2nn3c(c2C(N)=O)CN(C(=O)Nc2ccc(C#N)cc2)CC3)c1 [Compound 275, N^5-(4-Cyanophenyl)-2-(3,5-dimethylphenyl)-6,7-dihydropyrazolo[1,5-a] pyrazine-3,5(4H)-dicarboxamide]

IC50 [1, 3]: 0.01 to 10 nM
IC50 [2]: 0.01 to 10 nM
Structure (SMILES): NC(=O)c1c(-c2ccc(F)c(F)c2)nn2c1CN(C(=O)Nc1ccc3c(c1)CS(=O)(=O)C3)CC2 [Compound 234, 2-(3,4-Difluorophenyl)-N^5-(2,2-dioxido-1,3-dihydrobenzo[c]thiophen-5-yl)-6,7-dihydropyrazolo [1,5-a]pyrazine-3,5(4H)-dicarboxamide]

IC50 [1, 3]: 0.01 to 10 nM
IC50 [2]: 0.01 to 10 nM
Structure (SMILES): CC(C)(C)c1ccc(NC(=O)N2CCn3nc(-c4cccc(F)c4)c(C(N)=O)c3C2)cc1 [Compound 63, N^5-(4-(tert-Butyl)phenyl)-2-(3-fluorophenyl)-6,7-dihydropyrazolo[1,5-a]pyrazine-3,5(4H)-dicarboxamide]

IC50 [1, 3]: 0.01 to 10 nM
IC50 [2]: 0.01 to 10 nM
Structure (SMILES): NC(=O)c1c(-c2cc(F)cc(Cl)c2)nn2c1CN(C(=O)Nc1cc(Cl)cc(Cl)c1)CC2 [Compound 216, 2-(3-Chloro-5-fluorophenyl)-N^5-(3,5-dichlorophenyl)-6,7-dihydropyrazolo[1,5-a] pyrazine-3,5(4H)-dicarboxamide]

IC50 [1, 3]: 0.01 to 10 nM
IC50 [2]: 0.01 to 10 nM
Structure (SMILES): NC(=O)c1c(-c2cc(Cl)c(F)c(Cl)c2)nn2c1CN(C(=O)Nc1cc(Cl)cc(Cl)c1)CC2 [Compound 261, 2-(3,5-Dichloro-4-fluorophenyl)-N^5-(3,5-dichlorophenyl)-6,7-dihydropyrazolo[1,5-a] pyrazine-3,5(4H)-dicarboxamide]

IC50 [1, 3]: 0.01 to 10 nM
IC50 [2]: 0.01 to 10 nM
Structure (SMILES): NC(=O)c1c(-c2ccc(F)c(Cl)c2)nn2c1CN(C(=O)Nc1cc(F)c(F)c(F)c1)CC2 [Compound 187, 2-(3-Chloro-4-fluorophenyl)-N^5-(3,4,5-trifluorophenyl)-6,7-dihydropyrazolo[1,5-a] pyrazine-3,5(4H)-dicarboxamide]

IC50 [1, 3]: 0.01 to 10 nM
IC50 [2]: 0.01 to 10 nM
Structure (SMILES): N#Cc1ccc(NC(=O)N2CCn3nc(-c4cnc(Cl)c(Cl)c4)c(C(N)=O)c3C2)cc1 [Compound 297, N^5-(4-Cyanophenyl)-2-(5,6-dichloropyridin-3-yl)-6,7-dihydropyrazolo[1,5-a]pyrazine-3,5(4H)-dicarboxamide]

IC50 [1, 3]: 0.01 to 10 nM
IC50 [2]: 0.01 to 10 nM
Structure (SMILES): Cc1cc(NC(=O)N2CCn3nc(-c4cc(F)c5cnn(C)c5c4)c(C(N)=O)c3C2)ccc1C#N [compound 327]

— patent US9598423B2 (BRISTOL-MYERS SQUIBB COMPANY, priority 2013, dated 2017)
